Key:
TBG [1] = conditions: cited from earlier work
TBG [2] = biological target: T1, TBG (Homo sapiens, UniProt P05543); assay: Binding of T4 derivatives to TBG, from antibody binding in presence and absence of blocking agent (Example 7)
T1 sequence (P05543 21-415): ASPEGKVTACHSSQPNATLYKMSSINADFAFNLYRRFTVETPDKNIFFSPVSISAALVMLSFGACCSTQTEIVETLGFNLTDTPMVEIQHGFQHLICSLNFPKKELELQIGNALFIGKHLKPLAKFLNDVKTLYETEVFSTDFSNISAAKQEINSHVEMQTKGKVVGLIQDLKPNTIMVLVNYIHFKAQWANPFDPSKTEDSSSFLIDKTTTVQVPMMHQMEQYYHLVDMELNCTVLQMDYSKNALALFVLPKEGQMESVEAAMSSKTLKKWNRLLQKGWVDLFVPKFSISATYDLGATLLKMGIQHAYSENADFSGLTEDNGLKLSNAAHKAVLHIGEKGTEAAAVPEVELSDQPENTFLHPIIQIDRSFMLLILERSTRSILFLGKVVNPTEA
Protocol: (§1) The dominant binding protein for T4 in serum is TBG, and the binding site for T4 on this protein may be blocked by adding an appropriate concentration of thiomersalate to the buffer.
(§2) The labelled T4 derivative was dissolved in 0.01 molar phosphate, pH 7.4 containing 0.9% sodium chloride and 0.1% gelatin to give a radioactive concentration of approximately 0.05 microcuries per milliliter. In the part of the experiment where the blocking agent was used, this buffer contained 1.8% thiomersal.
(§3) A solid phase T4 specific antibody was used that consisted of a pre-precipitated double antibody complex made by reacting sheep anti-T4 serum and donkey anti-rabbit gamma globulin serum in the abovementioned phosphate buffer. A concentration of this solid phase T4 antibody suspension was chosen that bound approximately 50% of ^125 I-T4 tracer in the presence of blocking agent under the experimental conditions used.
(§4) The binding of the labelled T4 derivatives was tested as follows:
(§5) 50 μl human serum (depleted of T4 by resin extraction)
(§6) 500 μl labelled T4 derivative (with or without blocking agent)
(§7) 1.0 ml solid phase T4 antibody suspension
(§8) Tubes were incubated for 2 hours at 37° C. and then centrifuged to settle the solid phase antibody. The supernatant solution was decanted and the radioactivity in the solid phase measured.
The right-hand column of the above table sets out the ratio of the figures in the two other columns. As a rule of thumb, it may be said that this ratio should be at least 0.6, preferably at least 0.9 for the compound tested to be worth considering for use in the free T4 assay. It should be noted, however, that these figures are valid only for the free T4 assay and not necessarily for other free ligand assays.

TBPA [3] = conditions: cited from earlier work
[4] = system: solid phase T4 specific antibody; assay: Binding of labelled T4 derivatives to solid phase T4 antibody with and without thiomersal (Example 7); set-up: species or system sheep; conditions: 125I-labelled T4 derivative
Protocol: as §1, §2, §3, §4, §5, §6, §7, §8

antibodies = conditions: cited from earlier work
sheep-anti-T4 serum = assay: Free T4 assay, tracer N-acetyl-thyroxine-methyl ester bound to sheep anti-T4 serum (standard curve, Example 1); format: binding
Source text: The labelled derivative of the ligand was N-acetyl-thyroxine-methyl ester, labelled by iodine-125 exchange using sodium iodide-I^125 and chloramine-T. The specific activity was 1500 millicuries per milligram. The tractor concentration was 90 picomolar.
The specific binder was a solution of sheep-anti-T4 serum raised against thyroxine methyl ester coupled to bovine serum albumin by carbodiimide. The final dilution was 1/60,000 in buffer.
The buffer contained 13.6 g/l KH2 PO4, 9.0 g/l NaCl, 0.07 g/l NaN3 and 1.0 g/l gelatin.
50 micro-liters of a serum sample was mixed with 200 micro-liters of the radioactive ligand derivative solution and 200 micro-liters of specific binder solution and the mixture incubated at room temperature for one hour. Then 1 milli-liter of polyethyleneglycol solution (20%) was added, and the reaction mixture centrifuged. The supernatant liquid was decanted and the radioactivity of the precipitate was measured.

[5] = system: plasma proteins such as sex hormone binding globulin and albumin; conditions: cited from earlier work
[6] = system: sex hormone binding globulin (SHBG); conditions: cited from earlier work
[7] = system: T4-binding reagent (pre-precipitated double antibody complex, sheep anti-T4 serum); assay: Free T4 assay using N-acetyl-thyroxine-dimethylamide, tracer bound to T4-binding reagent (Example 6)
Source text: The labelled derivative of the ligand was N-acetyl-thyroxine-dimethylamide,labelled by iodine-125 exchange using sodium iodide I^125 and chloromine-T. The specific activity was 1000 millicuries per milligram. The tracer concentration was 0.5 μCi/ml.
The specific binder was a pre-precipitated double antibody complex made from sheep anti-T4 serum and donkey anti-rabbit γ globulin serum. This reagent is referred to as the T4-binding reagent.
The buffer was 0.01 molar phosphate, pH 7.4, containing 9.0 g/l NaCl, 1.0 g/l NaN3 and 1.0 g/l gelatin. 50 micro-liters of a serum sample or standard was mixed with 500 micro-liters of the tracer solution and 1000 micro-liters of the T4-binding reagent. The mixture was incubated for 2 hours at 37° C., centrifuged, decanted, and drained. The radioactivity of the precipitate was measured.

transcortin and albumin = conditions: cited from earlier work
serum albumin = conditions: U.S. Pat. No. 4,069,305; cited from earlier work
TBPA [8] = conditions: blood stream of human beings; cited from earlier work
Albumin = conditions: blood stream of human beings; cited from earlier work
TBG [9] = biological target: T1, TBG; conditions: blood stream of human beings; cited from earlier work
[10] = system: thyroxine binding globulin (TBG), thyroxine binding pre-albumin (TBPA) and albumin (Alb); conditions: blood serum or plasma; cited from earlier work

## N[C@H](Cc1cc(I)c(Oc2cc(I)c(O)c(I)c2)c(I)c1)C(=O)O [D-T4, D-Thyroxine]
TBG [1]
  binding to TBG relative to L-Thyroxine / T4 (in words): substantially less than that of L-Thyroxine
TBG [2]
  Ratio (% bound to antibody, thiomersal absent / present): 0.48
  binding to TBG (in words): bound less by TBG
  suitability of TBG binding reduction for free-T4 assay (in words): not reduced enough for consideration as a T4 derivative for a free-T4 assay
TBPA [3]
  binding to TBPA relative to L-Thyroxine / T4 (in words): substantially less than that of L-Thyroxine
[4]; Thiomersal absent
  % of T4 derivative bound to antibody: 24%
[4]; Thiomersal present
  % of T4 derivative bound to antibody: 50%
antibodies
  binding to antibodies relative to L-Thyroxine / T4 (in words): binds as strongly to antibodies as does the naturally occurring L-Thyroxine

## COC(=O)[C@H](Cc1cc(I)c(Oc2cc(I)c(O)c(I)c2)c(I)c1)NC(C)=O [N-acetyl-thyroxine-methyl ester]
sheep-anti-T4 serum; Free T4 0.0 ng/dl
  % Radioactivity in Solid Phase: 58%
sheep-anti-T4 serum; Free T4 0.2 ng/dl
  % Radioactivity in Solid Phase: 55%
sheep-anti-T4 serum; Free T4 1.0 ng/dl
  % Radioactivity in Solid Phase: 47%
sheep-anti-T4 serum; Free T4 3.0 ng/dl
  % Radioactivity in Solid Phase: 34%
sheep-anti-T4 serum; Free T4 5.8 ng/dl
  % Radioactivity in Solid Phase: 22%

## C[C@]12CC[C@H]3[C@@H](CCC4=CC(=O)CC[C@@]43C)[C@@H]1CC[C@@H]2O (stereo in doubt) [testosterone]
[5]
  proportion bound to plasma proteins: > 90%
[6]
  binding to SHBG (in words): bind strongly

## CC(=O)[C@H]1CC[C@H]2[C@@H]3CCC4=CC(=O)CC[C@]4(C)[C@H]3CC[C@]12C [progesterone]
[5]
  proportion bound to plasma proteins: > 90%

## C[C@]12CC[C@@H]3c4ccc(O)cc4CC[C@H]3[C@@H]1CC[C@@H]2O [oestradiol]
[6]
  binding to SHBG (in words): bind strongly

## CC(=O)N[C@@H](Cc1cc(I)c(Oc2cc(I)c(O)c(I)c2)c(I)c1)C(=O)N(C)C [N-acetyl-thyroxine-dimethylamide]
[7]; Free T4 0 ng/dl, mean of duplicate tubes
  % Radioactivity in Solid Phase: 38%
[7]; Free T4 0.18 ng/dl, mean of duplicate tubes
  % Radioactivity in Solid Phase: 22%
[7]; Free T4 0.9 ng/dl, mean of duplicate tubes
  % Radioactivity in Solid Phase: 11%
[7]; Free T4 3.0 ng/dl, mean of duplicate tubes
  % Radioactivity in Solid Phase: 6.0%
[7]; Free T4 5.7 ng/dl, mean of duplicate tubes
  % Radioactivity in Solid Phase: 3.6%
[7]; non-pregnant euthyroid control
  % Radioactivity in Solid Phase: 7.1%
[7]; pregnant euthyroid control
  % Radioactivity in Solid Phase: 6.8%

## C[C@]12CCC(=O)C=C1CC[C@@H]1[C@@H]2[C@@H](O)C[C@@]2(C)[C@H]1CC[C@]2(O)C(=O)CO [cortisol]
Transcortin and albumin
  cortisol in free form in blood plasma: ~8%

## C[C@]12CCC(=NOCC(=O)NCCc3c[nH]cn3)C=C1CC[C@@H]1[C@@H]2[C@@H](O)C[C@@]2(C)[C@H]1CC[C@]2(O)C(=O)CO
Serum albumin
  binding to serum albumin relative to cortisol (in words): binds much less strongly to serum albumin than cortisol itself

## N[C@@H](Cc1cc(I)c(Oc2cc(I)c(O)c(I)c2)c(I)c1)C(=O)O [L-T4, thyroxine, reference compound]
TBPA [8]
  percentage of T4 bound to TBPA: 20-25%
Albumin
  percentage of T4 bound to Albumin: 5-10%
TBG [2]
  Ratio (% bound to antibody, thiomersal absent / present): 0.24
  binding to TBG (in words): bound appreciably by TBG
TBG [9]
  percentage of T4 bound to TBG: approximately 70%
[10]
  bound to naturally occurring binding proteins: approximately 99.98%
[4]; Thiomersal absent
  % of T4 derivative bound to antibody: 12%
[4]; Thiomersal present
  % of T4 derivative bound to antibody: 50%

From US4366143A, “Assay for the free portion of substances in biological fluids” (Amersham International Public Limited Company, priority 1979, dated 1982)
